Legend:
Format in all cases: in vivo, Male ICR mice
mice [1] = assay: histamine-induced paw edema test; conditions: 10 mg/kg i.p. 15 minutes before histamine 10 μg; 12 minutes after histamine
Experimental: (§1) In the following Examples, all extracts and drugs used were dissolved in physiological saline before use for i.p. administration and the dose was 0.1 ml of physiological saline per 10 g of mouse body weight in either case. All extracts and drugs were suspended in physiological saline containing 1% sodium carboxymethylcellulose before use for oral administration and the dose was 0.1 ml of 1% sodium carboxymethylcellulose-containing physiological saline suspension per 10 g of mouse body weight in either case. Male ICR mice (Japan SLC) having a body weight of 25 to 30 g were used in the tests below unless otherwise stated, and were fed in advance at a room temperature of 23±1° C. and a relative humidity of 55±5% in the environment of a cycle of 12-hour-light from 7 a.m. to 7 p.m. and 12-hour-dark from 7 p.m. to 7 a.m. for 3 to 5 days. The mice were allowed to have water and feed freely.
Six mice per group were used. […] The thickness of the right hind paw was measured immediately before histamine administration and 12 minutes after histamine administration. The thickness immediately before administration was subtracted from the thickness of the paw after histamine administration, and this was adopted as a thickness of paw edema. As apparent from TABLE 18, paw edema due to histamine was suppressed by neferine. […]

mice [2] = assay: acetic acid-induced writhing test
Experimental: as §1
An acetic acid-induced writhing test is a method wherein analgesic action of a compound is determined utilizing this. The number of this writhing is compared between a physiological saline-administered control group and a test drug-administered group, and suppression of the number of writhing by the test drug is investigated thereby assessing its analgesic action.
Seven to ten mice per group were used. Neferine hydrochloride was subcutaneously administered to mice at their back at a dose of 5 mg/kg, 10 mg/kg, 25 mg/kg, 50 mg/kg or 100 mg/kg and, after 15 minutes, a 0.6% by weight solution of acetic acid in water was intraperitoneally administered at 0.1 mL/10 g body weight. The number of writhing was counted every ten minutes for 30 minutes from immediately after acetic acid administration (0 to 10 min, 10 to 20 min, 20 to 30 min). In addition, the total number of writhing for 30 minutes from immediately after acetic acid administration was also obtained. Regarding the resulting measurements, a significant difference test was performed by a Dunnet multiple comparison test method.
According to the same manner as in acetic acid-induced writhing test-1 except that acetic acid was intraperitoneally administered 30 minutes after subcutaneous administration of neferine in the aforementioned acetic acid-induced writhing test-1, an acetic acid-induced writhing test was performed. However, the dose of neferine was only 50 mg/kg.
According to the same manner as in the acetic acid-induced writhing test-1 except that acetic acid was intraperitoneally administered 30 minutes after oral administration of neferine in the aforementioned acetic acid-induced writhing test-1, an acetic acid-induced writhing test was performed. However, five to six mice per group were used. The dose of neferine was 10 mg/kg and 50 mg/kg. Further, aspirin was used as a positive control drug. The dose of aspirin was 50 mg/kg.
(§2) According to the same manner as in acetic acid-induced writhing test-1 except that armepavine was used in place of neferine in the aforementioned acetic acid-induced writhing test-1, an acetic acid-induced writhing test was performed. However, the dose of armepavine was 5 mg/kg and 10 mg/kg.
as §2, with “O-methylarmepavine” for “armepavine”

mice [3] = assay: formalin pad test; conditions: 10 mg/kg i.p. 15 minutes before formalin
Experimental: as §1
A formalin pad test is a method in which, when formalin is subcutaneously administered to a pad of a mouse, the mouse causes licking, and analgesic action of a test drug is determined by utilizing this. Suppression of licking in a test drug-administered group was investigated relative to a physiological saline-administered control group, and analgestic action was evaluated.
Six mice per group were used. Neferine hydrochloride was intraperitoneally administered at a dose of 25 mg/kg, 50 mg/kg or 100 mg/kg and, after fifteen minutes, 20 μl of a 0.2% by weight formalin aqueous solution was subcutaneously administered to a right hind paw pad. After formalin administration, licking was regarded as a provisional pain reaction, and a licking sustaining time in a first phase from immediately after formalin administration to five minutes after formalin administration and in a second phase from 15 minutes to 30 minutes after formalin administration was measured. Regarding the resulting measurements, a significant difference test was performed by a Dunnet multiple comparison test method.
According to the same manner as in Example 13 except that 10 mg/kg of O-methylarmepavine was intraperitoneally administered in place of neferine, a formalin pad test was performed.

mice [4] = assay: rotarod test (motor coordination); conditions: 5 mg/kg i.p., n=6, 15 minutes after administration, 8 rpm, three minutes
Experimental: as §1
Tests were performed by using mice administered intraperitoneally with 25 mg/kg of neferine hydrochloride (treatment group 7-1, n=6), 25 mg/kg of liensinine hydrochloride (treatment group 7-2, n=6), and physiological saline (negative control group, n=6) as well as 5 mg/kg of diazepam (positive control group, n=6) and a rotarod equipment (Ugo Basile, Italy) and a locomotor activity monitoring system (NS-AS01, Neuroscience Inc.). […]

mice [5] = assay: locomotor activity (ultromotivity) test, evaluation of sedative action
Experimental: as §1
Twenty five mice were grouped into five groups each having five mice, to which 5 mg/kg of N-methylcoclaurine hydrochloride (treatment group 1-1: i.p. administration), 50 mg/kg of neferine hydrochloride (treatment group 1-2: oral administration, and treatment group 1-3: i.p. administration), 50 mg/kg of liensinine hydrochloride (treatment group 1-4: oral administration), or physiological saline (negative control group 1-1: i.p. administration) was administered. The ultromotivity of the mice was analyzed by using a locomotor activity monitoring system (NS-AS01, Neuroscience Inc.). The ultromotivity measurements were performed at an interval of 5 minutes for 60 minutes, and the ultromotivity was judged from the count at each measuring time.
Similar tests were conducted by i.p. administration of 25 mg/kg of N-norarmepavine (treatment group 1-5, n=6), 25 mg/kg of O,O-dimethylcoclaurine (treatment group 1-6, n=5), 10 mg and 25 mg/kg of armepavine (respectively, treatment group 1-7, n=6, and treatment group 1-8, n=6), 10 mg and 25 mg/kg of O-methylarmepavine (respectively, treatment group 1-9, n=6, and treatment group 1-10, n=6), and physiological saline (negative control group 1-2, n=5). The ultromotivity measurements were performed at an interval of five minutes for 60 minutes, and the ultromotivity was subjected to a significant difference test (Tukey's method) by using the counts at respective measuring times.
Tests were performed by using mice administered intraperitoneally with 25 mg/kg of neferine hydrochloride (treatment group 7-1, n=6), 25 mg/kg of liensinine hydrochloride (treatment group 7-2, n=6), and physiological saline (negative control group, n=6) as well as 5 mg/kg of diazepam (positive control group, n=6) and a rotarod equipment (Ugo Basile, Italy) and a locomotor activity monitoring system (NS-AS01, Neuroscience Inc.). The rotarod test was performed by placing a mouse on a rod having a diameter of 4 cm rotating at a speed of 8 rpm 15 minutes after drug administration and observing whether the mouse can stay on the rod without falling for three minutes. The individuals that had fallen from the rotating rod in the period of 3 minutes were judged that they are with motor coordination disorder. […] In addition, the ultromotivity measurements were performed at an interval of five minutes for 60 minutes, and the ultromotivity results were subjected to a significant difference test (Tukey's method) by using the counts at respective measuring times.

[6] = 5 mg/kg s.c. 15 minutes before acetic acid
[7] = 10 mg/kg s.c. 15 minutes before acetic acid
[8] = 50 mg/kg oral 30 minutes before acetic acid

Compound | Number of writhing 0-10 min. (mice [2]; [6]) | Number of writhing 0-30 min. (mice [2]; [6]) | Number of writhing 10-20 min. (mice [2]; [6]) | Number of writhing 20-30 min. (mice [2]; [6]) | Number of writhing 0-10 min. (mice [2]; [7]) | Number of writhing 0-30 min. (mice [2]; [7]) | Number of writhing 10-20 min. (mice [2]; [7]) | Number of writhing 20-30 min. (mice [2]; [7]) | other results
COc1ccc(C[C@@H]2c3cc(OC)c(OC)cc3CCN2C)cc1 [O-methylarmepavine] | 11.6 ± 1.41 | 30.2 ± 1.90 | 11.2 ± 2.25 | 7.4 ± 1.52 | 5.9 ± 1.73 | 13.3 ± 1.69 | 4.3 ± 1.19 | 3.1 ± 0.58 | Thickness of paw edema (mm) (mice [1]): 0.37 ± 0.06 mm; Licking sustaining time (second) First phase (mice [3]; 0 to 5 minutes): 70.9 ± 11.24 s; Licking sustaining time (second) Second phase (mice [3]; 15 to 30 minutes): 126.9 ± 18.4 s
CN1C(=O)CN=C(c2ccccc2)c2cc(Cl)ccc21 [diazepam] |  |  |  |  |  |  |  |  | Number of individuals fallen (mice [4]): 5
COc1cc2c(cc1OC)C(Cc1ccc(O)cc1)N(C)CC2 (centres unmarked) [armepavine] | 19.0 ± 3.21 | 41.7 ± 5.24 | 14.7 ± 1.92 | 9.4 ± 1.81 | 8.6 ± 1.41 | 24.6 ± 4.23 | 10.7 ± 2.24 | 5.3 ± 1.39 | 
CC(=O)Oc1ccccc1C(=O)O [aspirin, reference compound] |  |  |  |  |  |  |  |  | Number of writhing 0-10 min. (mice [2]; [8]): 10.8 ± 3.41; Number of writhing 0-30 min. (mice [2]; [8]): 3.34 ± 5.35; Number of writhing 10-20 min. (mice [2]; [8]): 15.2 ± 1.83; Number of writhing 20-30 min. (mice [2]; [8]): 7.4 ± 1.23
COc1cc2c(cc1OC)[C@@H](Cc1ccc(O)c(Oc3cc4c(cc3OC)CCN(C)[C@@H]4Cc3ccc(O)cc3)c1)N(C)CC2 [liensinine] |  |  |  |  |  |  |  |  | Ultromotivity (count) 30 minutes (mice [5]; 50 mg/kg oral): 600 count; Ultromotivity (count) 60 minutes (mice [5]; 50 mg/kg oral): 800 count
COc1cc2c(cc1O)[C@@H](Cc1ccc(O)cc1)N(C)CC2 [N-methylcoclaurine] |  |  |  |  |  |  |  |  | sedative activity compared with neferine and liensinine (mice [5]; 5 mg/kg i.p. versus 50 mg/kg of the bisbenzylisoquinolines): extremely higher activity; Ultromotivity (count) 30 minutes (mice [5]; 5 mg/kg i.p.): 250 count; Ultromotivity (count) 60 minutes (mice [5]; 5 mg/kg i.p.): 250 count

From patent US20070027181A1, “Benzylisoquinoline derivative- or bisbenzylisoquinoline derivative-containing psychotropic agent, analgesic and/or antiphlogistic, and health food” (EDUCATION CENTER OF TRADITIONAL, priority 2004, published 2007)
